Our source for the relative viability values is the supplement of paper PMC10307832.

Assay in all cases: relative viability (nuclei count vs DMSO), 5 days (fraction); higher = more cells survive
Compound in test [1]: C=CCn1c(=O)c2cnc(Nc3ccc(N4CCN(C)CC4)cc3)nc2n1-c1cccc(C(C)(C)O)n1 [Adavosertib] + N=C(N)NC(=N)NCCc1ccccc1 [Phenformin] (partner 250 µM)
Put shortly:
(§1)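 The day after seeding in 1536-well plates, lung cancer cell lines were treated by pin tool with a single drug, or with a fixed anchor-drug dose together with five library-drug doses (not always all listed) in √10 steps. After 5 days, a combined fix-and-stain solution (final 0.05% Triton X-100, 1% formaldehyde, 1 ug/ml Hoechst) was added. Nuclei counted on 4× images gave relative viability as treated counts over vehicle counts, reported as the median of duplicate plates.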

Compound in test [2]: COc1nc(N)nc2c1ncn2[C@@H]1O[C@H](CO)[C@@H](O)[C@@H]1O [Nelarabine] + CC(=O)Nc1cccc(-n2c(=O)n(C3CC3)c(=O)c3c(Nc4ccc(I)cc4F)n(C)c(=O)c(C)c32)c1 [Trametinib] (partner 0.02 µM)
Put shortly: as §1

Compound in test [3]: COc1nc(N)nc2c1ncn2[C@@H]1O[C@H](CO)[C@@H](O)[C@@H]1O [Nelarabine] + CS(=O)(=O)N1CCN(Cc2cc3nc(-c4cccc5[nH]ncc45)nc(N4CCOCC4)c3s2)CC1 [Pictilisib] (partner 1 µM)
Put shortly: as §1

Compound in test [4]: COc1nc(N)nc2c1ncn2[C@@H]1O[C@H](CO)[C@@H](O)[C@@H]1O [Nelarabine] + O=C(CCCCCCC(=O)Nc1ccccc1)NO [Vorinostat] (partner 1 µM)
Put shortly:
as §1

For the cell line RERF-LC-KJ, the relative viability in test [1] (first compound 0.01 µM) came to 0.363; in test [1] (first compound 0.03162 µM) it was 0.381; in test [1] (first compound 0.1 µM) it was 0.4; in test [1] (first compound 0.3162 µM), 0.439; in test [2] (first compound 0.01 µM), 1.03; in test [2] (first compound 0.03162 µM), 1. Also, the relative viability stood at 0.934 in test [2] (first compound 0.1 µM); 0.986 in test [2] (first compound 0.3162 µM); 0.862 in test [2] (first compound 1 µM); 0.582 in test [3] (first compound 0.01 µM); 0.652 in test [3] (first compound 0.03162 µM); 0.559 in test [3] (first compound 0.1 µM). The relative viability in test [3] (first compound 0.3162 µM) is 0.578; in test [3] (first compound 1 µM) it was 0.422; in test [4] (first compound 0.01 µM), 0.749; in test [4] (first compound 0.03162 µM), 0.754; in test [4] (first compound 0.1 µM), 0.623; in test [4] (first compound 0.3162 µM), 0.72. Also, the relative viability in test [4] (first compound 1 µM) was determined as 0.727.
Take SK-LU-1: the relative viability was found to be 0.57 in test [1] (first compound 0.01 µM); 0.484 in test [1] (first compound 0.03162 µM); 0.458 in test [1] (first compound 0.1 µM); 0.223 in test [1] (first compound 0.3162 µM); 0.523 in test [2] (first compound 0.01 µM); 0.42 in test [2] (first compound 0.03162 µM). Further, the relative viability in test [2] (first compound 0.1 µM) is 0.421; in test [2] (first compound 0.3162 µM), 0.558; in test [2] (first compound 1 µM), 0.514; in test [3] (first compound 0.01 µM) it was 0.684; in test [3] (first compound 0.03162 µM) it was 0.396; in test [3] (first compound 0.1 µM), 0.546. For the same cell line, the relative viability came out at 0.606 in test [3] (first compound 0.3162 µM); 0.613 in test [3] (first compound 1 µM); 0.789 in test [4] (first compound 0.01 µM); 0.585 in test [4] (first compound 0.03162 µM); 0.924 in test [4] (first compound 0.1 µM); 0.94 in test [4] (first compound 0.3162 µM). Further, in test [4] (first compound 1 µM), the relative viability was 0.845.
For SK-MES-1, the relative viability came to 0.66 in test [1] (first compound 0.01 µM); 0.704 in test [1] (first compound 0.03162 µM); 0.635 in test [1] (first compound 0.1 µM); 0.208 in test [1] (first compound 0.3162 µM); 0.56 in test [2] (first compound 0.01 µM); 0.567 in test [2] (first compound 0.03162 µM). In addition, the relative viability is 0.57 in test [2] (first compound 0.1 µM); 0.555 in test [2] (first compound 0.3162 µM); 0.615 in test [2] (first compound 1 µM); 0.34 in test [3] (first compound 0.01 µM); 0.318 in test [3] (first compound 0.03162 µM); 0.331 in test [3] (first compound 0.1 µM). Also, the relative viability in test [3] (first compound 0.3162 µM) was 0.358; in test [3] (first compound 1 µM), 0.373; in test [4] (first compound 0.01 µM) it was 1.36; in test [4] (first compound 0.03162 µM) it was 1.12; in test [4] (first compound 0.1 µM), 1.18; in test [4] (first compound 0.3162 µM) it was 1.36. For the same cell line, the relative viability in test [4] (first compound 1 µM) was 1.3.
Consider SW 1573, for which the relative viability in test [1] (first compound 0.01 µM) came to 0.384; in test [1] (first compound 0.03162 µM) it was 0.564; in test [1] (first compound 0.1 µM), 0.408; in test [1] (first compound 0.3162 µM), 0.324; in test [2] (first compound 0.01 µM) it was 0.667; in test [2] (first compound 0.03162 µM), 0.599. For the same cell line, the relative viability in test [2] (first compound 0.1 µM) came out at 0.566; in test [2] (first compound 0.3162 µM), 0.631; in test [2] (first compound 1 µM), 0.512; in test [3] (first compound 0.01 µM), 0.68; in test [3] (first compound 0.03162 µM), 0.53; in test [3] (first compound 0.1 µM), 0.535. Also, the relative viability in test [3] (first compound 0.3162 µM) was 0.485; in test [3] (first compound 1 µM), 0.639; in test [4] (first compound 0.01 µM) it was 1.05; in test [4] (first compound 0.03162 µM), 0.81; in test [4] (first compound 0.1 µM), 0.806; in test [4] (first compound 0.3162 µM), 0.628. Besides, in test [4] (first compound 1 µM), the relative viability came to 0.776.
As for UMC-11, the relative viability in test [1] (first compound 0.01 µM) was found to be 0.341; in test [1] (first compound 0.03162 µM) it was 0.315; in test [1] (first compound 0.1 µM) it was 0.318; in test [1] (first compound 0.3162 µM), 0.29; in test [2] (first compound 0.01 µM), 0.855; in test [2] (first compound 0.03162 µM), 0.659. In addition, the relative viability was found to be 0.755 in test [2] (first compound 0.1 µM); 0.767 in test [2] (first compound 0.3162 µM); 0.843 in test [2] (first compound 1 µM); 1.05 in test [3] (first compound 0.01 µM); 0.729 in test [3] (first compound 0.03162 µM); 0.874 in test [3] (first compound 0.1 µM). Also, the relative viability in test [3] (first compound 0.3162 µM) worked out at 1.02; in test [3] (first compound 1 µM) it was 0.898; in test [4] (first compound 0.01 µM), 0.385; in test [4] (first compound 0.03162 µM), 0.306; in test [4] (first compound 0.1 µM), 0.386; in test [4] (first compound 0.3162 µM), 0.371. The relative viability in test [4] (first compound 1 µM) turned out to be 0.404.
